Test results reported in patent US9120749B2, “Quinoline derivatives and MELK inhibitors containing the same” (ONCOTHERAPY SCIENCE, INC., priority 2010, dated 2015).
Where two headings read alike, the source gives them in different places.

How the values were obtained:
[1] = tested on: T47D cells; test: Cell-based assay: anti-proliferative activity, Cell Counting Kit-8, 72 hours (T47D); settings: Homo sapiens, T47D, 72 h
Experimental: (§1) To evaluate the expression status of MELK in several cell lines, western blot analysis was performed using crude cell lysate collected from those cells. Anti-MELK antibody (clone 31, BD Biosciences) was used to visualize the expression.
(§2) Active candidate inhibitors against MELK were evaluated for their target-specific cytotoxicity using T47D, A549, BT-549, and HT-1197 cells was used for negative control. 100 micro-L of cell suspension was seeded onto 96-well microtiter plate (ViewPlate-96FTC, PerkinElmer). The initial cell concentration of T47D, A549, BT-549, and HT-1197 were 3,000 cells/well, 2,000 cells/well and 2,500 cells/well, respectively. Cellular growth was determined using Cell Counting Kit-8 (DOJINDO) at 72 hours after the exposure of the candidate inhibitors. […] Accurate IC50 values were calculated as described previously.

[2] = tested on: HT-1197 cells; test: Cell-based assay: anti-proliferative activity, Cell Counting Kit-8, 72 hours (HT-1197, negative control without MELK expression); settings: Homo sapiens, HT1197, 72 h, HT1197 cells (negative control, no MELK expression), 72 hours
Experimental: as §1, §2

[3] = tested on: A549 cells; test: Cell-based assay: anti-proliferative activity, Cell Counting Kit-8, 72 hours (A549); settings: Homo sapiens, A549, 72 h, 72 hours
Experimental: as §2, with “100” for “Active candidate inhibitors against MELK were evaluated for their target-specific cytotoxicity using T47D, A549, BT-549, and HT-1197 cells was used for negative control. 100”

[4] = biological target: MELK (Homo sapiens, UniProt Q14680); test: Kinase assay: MELK activity, phosphorylation of FITC-labeled histone H3 peptide measured by IMAP fluorescence polarization; format: biochemical
Chain of MELK (Q14680 whole entry, looked up): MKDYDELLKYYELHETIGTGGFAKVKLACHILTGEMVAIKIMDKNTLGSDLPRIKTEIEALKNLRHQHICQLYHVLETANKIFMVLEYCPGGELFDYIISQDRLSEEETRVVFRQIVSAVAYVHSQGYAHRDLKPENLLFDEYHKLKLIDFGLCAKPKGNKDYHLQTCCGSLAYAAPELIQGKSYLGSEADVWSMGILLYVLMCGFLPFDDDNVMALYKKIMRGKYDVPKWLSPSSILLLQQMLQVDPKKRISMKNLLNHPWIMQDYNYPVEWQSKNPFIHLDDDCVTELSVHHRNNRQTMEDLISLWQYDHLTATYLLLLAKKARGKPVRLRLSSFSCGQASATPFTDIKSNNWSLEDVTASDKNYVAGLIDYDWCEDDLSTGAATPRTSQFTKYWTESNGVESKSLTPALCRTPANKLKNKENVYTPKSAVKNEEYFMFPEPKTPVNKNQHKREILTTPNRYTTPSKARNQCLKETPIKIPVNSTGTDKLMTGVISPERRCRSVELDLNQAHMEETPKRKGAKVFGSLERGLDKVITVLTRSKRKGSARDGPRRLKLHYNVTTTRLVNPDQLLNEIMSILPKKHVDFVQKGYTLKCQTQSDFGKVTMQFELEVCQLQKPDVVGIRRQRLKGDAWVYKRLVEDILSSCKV
Experimental: MELK activity was determined in the presence or absence of compounds using fluorescein isothiocyanate-labeled (FITC-labeled) histone H3 peptide as a substrate. […] Test compounds were dissolved in DMSO at 12.5 mM and then serially diluted as the DMSO concentration in the assays to be 1%. […] The reaction was stopped by the addition of three fold assay volume of progressive binding solution. Following 0.5 hour incubation at room temperature, fluorescence polarization was measured by Wallac EnVision 2103 multilabel reader (PerkinElmer).

[5] = 50 micro-M ATP, FITC-labeled histone H3 peptide substrate, IMAP fluorescence polarization, read-out: IC50 (μM) (kinase assay)

| Structure (SMILES) | IC50 [1] [µM] | IC50 [2] [µM] | IC50 [3] [µM] | IC50 [4, 5] [µM] | IC50 [4] [µM] |
| --- | --- | --- | --- | --- | --- |
| CC(=O)c1cnc2ccc(-c3cnc(C#N)nc3)cc2c1Nc1ccc(CN(C)C)cc1 [Example 414, 5-(3-acetyl-4-(4-((dimethylamino)methyl)phenylamino)quinolin-6-yl)pyrimidine-2-carbonitrile] | 0.24 | 0.8 | 1.5 | – | – |
| CN1CCCC1c1ccc(Nc2c(C(=O)C3CC3)cnc3ccc(-c4cc(F)c(O)c(Cl)c4)cc23)nc1 (stereo not shown) [Example 443] | 7.1 | 10 | 6.6 | 0.043 | – |
| CN(C)CC1CCN(c2c(C(=O)C3CCCC3)cnc3ccc(-c4cc(F)c(O)c(Cl)c4)cc23)CC1 [Example 384, (6-(3-chloro-5-fluoro-4-hydroxyphenyl)-4-(4-((dimethylamino)methyl)piperidin-1-yl)quinolin-3-yl)(cyclopentyl)methanone] | 2 | 4 | 1.9 | 0.0046 | – |
| CN(C)CC(=O)N1CC2CC1CN2c1c(C(=O)C2CC2)cnc2ccc(-c3cc(F)c(O)c(Cl)c3)cc12 (stereo not shown) [Example 455] | 12 | 60 | 37 | 0.069 | – |
| CN1CCCC1c1ccc(Nc2c(C(=O)C3CC3)cnc3ccc(-c4cc(Cl)c(O)c(Cl)c4)cc23)nc1 (stereo not shown) [Example 445] | 7.5 | 10 | 4.1 | 0.022 | – |
| CN(C)Cc1ccc(Nc2c(C#N)cnc3ccc(-c4cc(F)c(O)c(Cl)c4)cc23)cc1 [Example 432, 6-(3-chloro-5-fluoro-4-hydroxyphenyl)-4-(4-((dimethylamino)methyl)phenylamino)quinoline-3-carbonitrile] | 0.98 | 4.9 | 1.1 | 0.056 | – |
| COc1cc(-c2ccc3ncc(S(C)(=O)=O)c(Nc4ccc(CN(C)C)cc4)c3c2)cc(Cl)c1O [Example 410, 2-chloro-4-(4-(4-((dimethylamino)methyl)phenylamino)-3-(methylsulfonyl)quinolin-6-yl)-6-methoxyphenol] | 0.58 | 6.2 | 1.2 | 0.0068 | – |
| COc1cc(-c2ccc3ncc(C(=O)C4CC4)c(-c4ccc(CN5CCCC5)cc4)c3c2)cc(Cl)c1O [Example 436, (6-(3-chloro-4-hydroxy-5-methoxyphenyl)-4-(4-(pyrrolidin-1-ylmethyl)phenyl)quinolin-3-yl)(cyclopropyl)methanone] | 0.63 | 4.9 | 0.63 | 0.014 | – |
| CN(C)Cc1ccc(Nc2c(C(=O)C3CC3)cnc3ccc(-c4cc(F)c(O)c(Cl)c4)cc23)nc1 [Example 435, (6-(3-chloro-5-fluoro-4-hydroxyphenyl)-4-(5-((dimethylamino)methyl)pyridin-2-ylamino)quinolin-3-yl)(cyclopropyl)methanone] | 2.7 | 12 | 2.8 | 0.049 | – |
| CN(C)CC(=O)N1CCN(c2c(C(=O)C3CC3)cnc3ccc(-c4ccc(O)c(Cl)c4)cc23)CC1 [Example 441, 1-(4-(6-(3-chloro-4-hydroxyphenyl)-3-(cyclopropanecarbonyl)quinolin-4-yl)piperazin-1-yl)-2-(dimethylamino)ethanone] | 0.63 | 46 | 0.54 | 0.004 | – |
| CN1CCN(C(=O)CNc2c(C(=O)C3CC3)cnc3ccc(-c4cc(F)c(O)c(Cl)c4)cc23)CC1 [Example 390, 2-(6-(3-chloro-5-fluoro-4-hydroxyphenyl)-3-(cyclopropanecarbonyl)quinolin-4-ylamino)-1-(4-methylpiperazin-1-yl)ethanone] | 2 | 10 | 2.7 | 0.025 | – |
| CS(=O)(=O)c1cnc2ccc(-c3ccc(O)c(Cl)c3)cc2c1N1CCC(CN2CCCC2)CC1 [Example 408, 2-chloro-4-(3-(methylsulfonyl)-4-(4-(pyrrolidin-1-ylmethyl)piperidin-1-yl)quinolin-6-yl)phenol] | 8.2 | 9.5 | 3.2 | 0.009 | – |
| N#Cc1cnc2ccc(-c3ccc(O)c(Cl)c3)cc2c1N1CCC(CN2CCCC2)CC1 [Example 433, 6-(3-chloro-4-hydroxyphenyl)-4-(4-(pyrrolidin-1-ylmethyl)piperidin-1-yl)quinoline-3-carbonitrile] | 0.54 | 3.7 | 0.7 | 0.043 | – |
| COc1cc(-c2ccc3ncc(S(C)(=O)=O)c(N4CCC(CN5CCCC5)CC4)c3c2)cc(Cl)c1O [Example 412, 2-chloro-6-methoxy-4-(3-(methylsulfonyl)-4-(4-(pyrrolidin-1-ylmethyl)piperidin-1-yl)quinolin-6-yl)phenol] | 1.4 | 2.5 | 0.58 | 0.002 | – |
| CN(C)CC1CCN(c2c(C(=O)C3CCCC3)cnc3ccc(-c4ccc(O)c(Cl)c4)cc23)CC1 [Example 389, (6-(3-chloro-4-hydroxyphenyl)-4-(4-((dimethylamino)methyl)piperidin-1-yl)quinolin-3-yl)(cyclopentyl)methanone] | 2.9 | 6.9 | 1.7 | 0.031 | – |
| CN(C)CCNC(=O)c1ccc(-c2c(C(=O)C3CC3)cnc3ccc(-c4cc(Cl)c(O)c(Cl)c4)cc23)cc1 [Example 451] | 0.68 | 17 | 3.8 | 0.0025 | – |
| O=C(c1cnc2ccc(-c3cc(Cl)c(O)c(Cl)c3)cc2c1-c1ccc(CN2CCCC2)cc1)C1CC1 [Example 452] | 0.55 | 10 | 1.6 | 0.0026 | – |
| CN(C)Cc1ccc(Nc2c(C(=O)C3CCCC3)cnc3ccc(-c4ccc(O)c(Cl)c4)cc23)cc1 [Example 387, (6-(3-chloro-4-hydroxyphenyl)-4-(4-((dimethylamino)methyl)phenylamino)quinolin-3-yl)(cyclopentyl)methanone] | 1.6 | 1.9 | 1 | 0.089 | – |
| CN(C)Cc1ccc(Nc2c(C(=O)C3CC3)cnc3ccc(-c4cnc(C#N)nc4)cc23)nc1 [Example 439, 5-(3-(cyclopropanecarbonyl)-4-(5-((dimethylamino)methyl)pyridin-2-ylamino)quinolin-6-yl)pyrimidine-2-carbonitrile] | 0.61 | 3.6 | 4 | 0.058 | – |
| CN1CCN(c2ccc(-c3c(C(=O)C4CC4)cnc4ccc(-c5cc(Cl)c(O)c(Cl)c5)cc34)cc2)CC1 [Example 430, cyclopropyl(6-(3,5-dichloro-4-hydroxyphenyl)-4-(4-(4-methylpiperazin-1-yl)phenyl)quinolin-3-yl)methanone] | 1.3 | 9.2 | 2.7 | 0.033 | – |
| CN(C)CC1CCN(c2c(C(=O)C3CC3)cnc3ccc(-c4ccc5[nH]ccc5c4)cc23)CC1 [Example 453] | 1.2 | 2.3 | 0.48 | 0.094 | – |
| COc1cc(-c2ccc3ncc(C(=O)C4CC4)c(N4C[C@@H]5C[C@H]4CN5C(=O)CN(C)C)c3c2)cc(Cl)c1O [Example 456] | 3.8 | 29 | 4.2 | – | 0.0078 |
| Cc1cc(O)c(Cl)cc1-c1ccc2ncc(C(=O)C3CC3)c(N3CCC(CN(C)C)CC3)c2c1 [Example 448] | 2 | 7.9 | 1.7 | – | – |
| O=C(c1cnc2ccc(-c3cc(F)c(O)c(Cl)c3)cc2c1N1CCN(CCN2CCCC2)C(=O)C1)C1CC1 [Example 440, 4-(6-(3-chloro-5-fluoro-4-hydroxyphenyl)-3-(cyclopropanecarbonyl)quinolin-4-yl)-1-(2-(pyrrolidin-1-yl)ethyl)piperazin-2-one] | 1.1 | 10 | 5.1 | 0.0044 | – |
| CN1CCN(C(=O)CNc2c(C(=O)C3CC3)cnc3ccc(-c4ccc(O)c(Cl)c4)cc23)CC1 [Example 393, 2-(6-(3-chloro-4-hydroxyphenyl)-3-(cyclopropanecarbonyl)quinolin-4-ylamino)-1-(4-methylpiperazin-1-yl)ethanone] | 2.6 | – | 2.2 | 0.095 | – |
| COc1cc(-c2ccc3ncc(C(=O)C4CC4)c(Nc4ccc(C5CCCN5C)cn4)c3c2)cc(Cl)c1O (stereo not shown) [Example 444] | 6.8 | 10 | 7.6 | – | – |
| COc1cc(-c2ccc3ncc(C(C)=O)c(Nc4ccc(CN5CCCC5)cc4)c3c2)cc(Cl)c1O [Example 419, 1-(6-(3-chloro-4-hydroxy-5-methoxyphenyl)-4-(4-(pyrrolidin-1-ylmethyl)phenylamino)quinolin-3-yl)ethanone] | 0.99 | 5.1 | 0.84 | – | – |
